From US7144876B2, “3,5-Disubstituted-[1,2,4]-oxadiazoles and analogs as activators of caspases and inducers of apoptosis and the use thereof” (Cytovia, Inc., priority 2002, dated 2006)

Tests used:
T-47D [1] = test: Caspase cascade activation assay (N-(Ac-DEVD)-N'-ethoxycarbonyl-R110 fluorogenic substrate) in solid tumor cells; assay type: cell-based, Human; conditions: T-47D cells, 48 h incubation; for EC50: Homo sapiens, T47D, sigmoidal dose-response, read-out: Caspase potency EC50; for Caspase activity (Ratio): ratio of net RFU of test compound to that of control samples
Experimental: Human breast cancer cell lines T-47D and ZR-75-1 were grown according to media component mixtures designated by American Type Culture Collection+10% FCS (Invitrogen Corporation), in a 5% CO2-95% humidity incubator at 37° C. T-47D and ZR-75-1 cells were maintained at a cell density between 50 and 80% confluency at a cell density of 0.1 to 0.6×10^6 cells/mL. Cells were harvested at 600×g and resuspended at 0.65×10^6 cells/mL into appropriate media+10% FCS. An aliquot of 45 μl of cells was added to a well of a 96-well microtiter plate containing 2.5 μl of a 10% DMSO in RPMI-1640 media solution containing 0.16 to 100 μM of 3-(3-amino-4-chloro-phenyl)-5-(3-chlorothiophen-2-yl)-[1,2,4]-oxadiazole or other test compound (0.016 to 10 μM final). An aliquot of 22.5 μL of cells was added to a well of a 384-well microtiter plate containing 2.5 μl of a 10% DMSO in RPMI-1640 media solution without test compound as the control sample. The samples were mixed by agitation and then incubated at 37° C. for 48 h in a 5% CO2-95% humidity incubator. After incubation, the samples were removed from the incubator and 25 μL of a solution containing 14 μM of N-(Ac-DEVD)-N′-ethoxycarbonyl-R110 (SEQ ID No.:1) fluorogenic substrate (Maxim, Inc.; WO99/18856), 20% sucrose (Sigma), 20 mM DTT (Sigma), 200 mM NaCl (Sigma), 40 mM Na PIPES buffer pH 7.2 (Sigma), and 500 μg/mL lysolecithin (Calbiochem) was added. The samples were mixed by agitation and incubated at room temperature. Using a fluorescent plate reader (Model SpectraMax Gemini, Molecular Devices), an initial reading (T=0) was made approximately 1–2 min after addition of the substrate solution, employing excitation at 485 nm and emission at 530 nm, to determine the background fluorescence of the control sample. After the 3 h incubation, the samples were read for fluorescence as above (T=3 h).
The Relative Fluorescence Unit values (RFU) were used to calculate the sample readings as follows: RFU(T=3h)−Control RFU(T=0)=Net RFU(T=3h)
The activity of caspase cascade activation was determined by the ratio of the net RFU value for 3-(3-amino-4-chloro-phenyl)-5-(3-chlorothiophen-2-yl)-[1,2,4]-oxadiazole or other test compound to that of control samples. The EC50 (nM) was determined by a sigmoidal dose-response calculation (Prism 2.0, GraphPad Software Inc.).

T-47D [2] = test: Inhibition of cell proliferation (GI50), CellTiter 96 AQueous One Solution; assay type: cell-based; conditions: Homo sapiens, T47D; T-47D cells, 48 h incubation; dose for 50% inhibition of cell proliferation
Experimental: T-47D and SKBr-3 cells were grown and harvested as in Example 72. An aliquot of 90 μL of cells (2.2×10^4 cells/mL) was added to a well of a 96-well microtiter plate containing 10 μl of a 10% DMSO in RPMI-1640 media solution containing 1 nM to […] of 3-(3-amino-4-chloro-phenyl)-5-(3-chlorothiophen-2-yl)-[1,2,4]-oxadiazole (0.1 nM to 10 μM final). An aliquot of 90 μL of cells was added to a well of a 96-well microtiter plate containing 10 μL of a 10% DMSO in RPMI-1640 media solution without compound as the control sample for maximal cell proliferation (AMax). The samples were mixed by agitation and then incubated at 37° C. for 48 h in a 5% CO2-95% humidity incubator. After incubation, the samples were removed from the incubator and 20 μL of CellTiter 96 AQUEOUS One Solution Cell Proliferation™ reagent (Promega) was added. The samples were mixed by agitation and incubated at 37° C. for 2–4 h in a 5% CO2-95% humidity incubator. Using an absorbance plate reader (Model 1420 Wallac Instruments), an initial reading (T=0) was made approximately 1–2 min after addition of the solution, employing absorbance at 490 nm. This determines the possible background absorbance of the test compounds. No absorbance for 3-(3-amino-4-chloro-phenyl)-5-(3-chlorothiophen-2-yl)-[1,2,4]-oxadiazole was found at 490 nm. After the 2–4 h incubation, the samples were read for absorbance as above (ATest).
Baseline for GI50 (dose for 50% inhibition of cell proliferation) of initial cell numbers were determined by adding an aliquot of 90 μL of cells or 90 μL of media, respectively, to wells of a 96-well microtiter plate containing 10 μL of a 10% DMSO in RPMI-1640 media solution. The samples were mixed by agitation and then incubated at 37° C. for 0.5 h in a 5% CO2-95% humidity incubator. After incubation, the samples were removed from the incubator and 20 μL of CellTiter 96 AQUEOUS One Solution Cell Proliferation™ reagent (Promega) was added. The samples were mixed by agitation and incubated at 37° C. for 2–4 h in a 5% CO2-95% humidity incubator. Absorbance was read as above, (AStart) defining absorbance for initial cell number used as baseline in GI50 determinations.
Calculation: GI50 (dose for 50% inhibition of cell proliferation) is the concentration where [(ATest−AStart)/(AMax−Astart)]=0.5.

MX1 = test: as above; assay type: cell-based; conditions: Homo sapiens; MX1 cells, 48 h incubation; dose for 50% inhibition of cell proliferation

| Structure (SMILES) | EC50 (T-47D [1]) | GI50 (T-47D [2]) | Caspase activity (Ratio) (T-47D [1]) | GI50 (MX1) |
| --- | --- | --- | --- | --- |
| Cc1cc(Cl)ccc1-c1noc(-c2occc2Br)n1 [Example 49, 5-(3-Bromofuran-2-yl)-3-(4-chloro-2-methyl-phenyl)-[1,2,4]oxadiazole] | 1010 nM |  | 11.9 |  |
| Cc1cc(Cl)cnc1-c1noc(-c2occc2Br)n1 [Example 50, 5-(3-Bromofuran-2-yl)-3-(5-chloro-3-methyl-pyridin-2-yl)-[1,2,4]oxadiazole] | 797 nM |  | 5.9 |  |
| CC1CCN(c2noc(-c3sccc3Cl)n2)CC1 [Example 22, 5-(3-Chlorothiophen-2-yl)-3-(4-methylpiperidin-1-yl)-[1,2,4]oxadiazole] | 3320 nM |  | 5.4 |  |
| Nc1cc(-c2noc(-c3sccc3Cl)n2)ccc1Cl [Example 1, 3-(3-Amino-4-chloro-phenyl)-5-(3-chlorothiophen-2-yl)-[1,2,4]-oxadiazole] | 1980 nM | 894 nM | 11.9 | 7000 nM |
| Fc1cc(-c2noc(-c3sccc3Cl)n2)ccc1Cl [Example 9, 5-(3-Chlorothiophen-2-yl)-3-(4-chloro-3-fluoro-phenyl)-[1,2,4]-oxadiazole] | 3270 nM | 514 nM | 9.0 | 899 nM |
| Cc1cc(Cl)ccc1-c1noc(-c2sccc2Cl)n1 [Example 43, 3-(4-Chloro-2-methyl-phenyl)-5-(3-chlorothiophen-2-yl)-[1,2,4]oxadiazole] | 818 nM |  | 7.9 |  |
| Clc1ccsc1-c1nc(N2CCCCC2)no1 [Example 18, 5-(3-Chlorothiophen-2-yl)-3-(1-piperidinyl)-[1,2,4]-oxadiazole] | 5040 nM |  | 2.8 |  |
| CN(C)c1cc(-c2noc(-c3occc3Br)n2)ccc1Cl [Example 4, 5-(3-Bromofuran-2-yl)-3-(3-dimethylamino-4-chloro-phenyl)-[1,2,4]-oxadiazole] | 1850 nM | 415 nM | 11.9 | 210 nM |
| O=[N+]([O-])c1cc(-c2noc(-c3sccc3Cl)n2)ccc1Cl [Example 10, 5-(3-Chlorothiophen-2-yl)-3-(4-chloro-3-nitro-phenyl)-[1,2,4]-oxadiazole] | 3750 nM |  | 9.9 |  |

More lines, in order of falling EC50 (T-47D [1]), values ahead:

| EC50 (T-47D [1]) | GI50 (T-47D [2]) | Structure (SMILES) | Caspase activity (Ratio) (T-47D [1]) | GI50 (MX1) |
| --- | --- | --- | --- | --- |
| 5550 nM |  | Clc1ccc(C=Cc2noc(-c3sccc3Cl)n2)cc1 [Example 13, 3-[2-(4-Chloro-phenyl)-vinyl]-5-(3-chlorothiophen-2-yl)-[1,2,4]-oxadiazole] | 4.4 |  |
| 4000 nM |  | N#Cc1cc(-c2noc(-c3sccc3Cl)n2)ccc1Cl [Example 7, 5-(3-Chlorothiophen-2-yl)-3-(4-chloro-3-cyano-phenyl)-[1,2,4]-oxadiazole] | 3.4 |  |
| 2440 nM |  | Cc1cccnc1-c1noc(-c2sccc2Cl)n1 [Example 47, 5-(3-Chlorothiophen-2-yl)-3-(3-methyl-pyridin-2-yl)-[1,2,4]oxadiazole] | 4.5 |  |
| 1520 nM | 360 nM | CN(C)c1cc(-c2noc(-c3sccc3Cl)n2)ccc1Cl [Example 2, 5-(3-Chlorothiophen-2-yl)-3-(3-dimethylamino-4-chloro-phenyl)-[1,2,4]-oxadiazole] | 15.1 | 5000 nM |
| 846 nM |  | Cc1cccnc1-c1noc(-c2occc2Br)n1 [Example 57, 5-(3-Bromofuran-2-yl)-3-(3-methyl-pyridin-2-yl)-[1,2,4]oxadiazole] | 6.4 |  |
